We go through 5 compounds from patent US20210346331A1, “TRPV4 ACTIVITY INHIBITOR” (KAO CORPORATION, priority 2018, published 2021).

In the test the target is T1, human TRPV4 (Homo sapiens, UniProt Q9HBA0).
T1 construct: expressed in transfected cells; host or cells: HeLa cells, transient transfection with pcDNA3.1 Directional TOPO vector
Briefly: Measurement of intracellular calcium ion influx activity in human TRPV4 expressing cells (HeLa, Fluo4) stimulated with TRPV4 agonist GSK1016790a. Type of test: cell-based. To be noted: for Intracellular Ca^2+ influx rate (%): GSK + solvent = 100%, human TRPV4 expressing HeLa cells, n = 3, Mean ± S.E.; for calcium ion influx caused by the TRPV4 agonist (result in words): summary of Table 1, Dunnett's test vs GSK1016790a + solvent. How it is done:
Polymerase chain reaction (PCR) was performed under the following conditions using a primer set comprising the oligonucleotides represented by the following base sequences which were synthesized with reference to published human TRPV4 gene sequences using a cDNA obtained by reverse-transcribing a totalRNA extracted from the Hutu-80 cell, as a template.
The obtained PCR product was purified using the High Pure PCR Product Purification Kit. The human TRPV4 gene expression vector was produced using the purified PCR product and the pcDNA3.1 Directional TOPO Expression Kit.
The HeLa cell was cultured using the DMEM/F12 medium containing 10% of fetal bovine serum. The HeLa cell was seeded in a T-75 cell culture flask at 5×10^5 cells/Flask. After three days of culture, the human TRPV4 gene expression vector (8 μg) produced in the above (2) was transfected into the cell using the TransIT-HeLaMONSTER Transfection Kit and cultured for 1 day.
The cell was detached using the Detachin and seeded at a density of 1.5×10^4 cells/90 μL/well in the DMEM/F12 medium containing 10% of fetal bovine serum on the 96 well Optical bottom plate and cultured for further 1 day.
Measurement of the intracellular calcium ion influx activity was performed using the Calcium Kit II—fluo 4. After the Loading buffer containing the Fluo4-AM and the Hanks' balanced salt solution were mixed at a ratio of 1:1, 180 μL/well of the mixture was added to the human TRPV4 expressing cell produced in the above (3) and incubated at 37° C. for 1 hour. Thereafter, fluorescence intensity (excitation wavelength: 488 nm, fluorescence wavelength: 524 nm) was measured using a fluorescent plate reader FDSS3000 (Hamamatsu Photonics K.K.) at 37° C. every 2 seconds. The GSK1016790a which is the TRPV4 agonist and each of the 4,3′-di-O-methyl-rosmarinic acid, 3′,4′-di-O-methyl-rosmarinic acid, 4,4′-di-O-methyl-rosmarinic acid, and 3,4-di-O-methyl-rosmarinic acid solution prepared in Production Examples as samples were diluted with the Hanks' balanced salt solution, 20 μL/well of the mixed solution thereof (they were mixed just before the addition) was added to the cell after 30 seconds after the start of the measurement, and the change of the fluorescence intensity was measured every 2 seconds until 300 seconds. The GSK1016790a was added so as to have a final concentration of 3 nM.
As a positive control of the TRPV4 activity inhibition, HC067047, which is the TRPV4 antagonist, was added to the cell in a final concentration of 10 μM.
The TRPV4 activity of the samples was calculated by the following equation, assuming that the influx rate of calcium ions by the treatment of the GSK1016790a, which is the TRPV4 agonist, is 100%.
Influx rate of calcium ions (%)=[(Fmax/F0)−(FmaxC2/F0C2)]/[(FmaxC1/FOC1)−(FmaxC2/F0C2)]×100 (Expression 1)
Fmax: The maximum fluorescence intensity of the well to which the GSK1016790a and a sample were added, at from 0 to 300 seconds after the start of the measurement
FmaxC1: The maximum fluorescence intensity of the well to which the GSK1016790a and a solvent were added, at from 0 to 300 seconds after the start of the measurement
FmaxC2: The maximum fluorescence intensity of the well to which only a solvent was added, at from 0 to 300 seconds after the start of the measurement
F0: The fluorescence intensity of the same well as Fmax, immediately after the start of the measurement
F0C1: The fluorescence intensity of the same well as FmaxC1, immediately after the start of the measurement
F0C2: The fluorescence intensity of the well to which only a solvent was added, immediately after the start of the measurement
The influx rates of calcium ions (n=3 for each group) in the case of adding samples were tested using the Dunnett's test by comparing with the case of adding the GSK1016790a+a solvent. […] The results were presented as the average value (Mean)±standard error (S.E.).

Where [1] appears, read: sample 30 μM + GSK1016790a 3 nM.
[2] abbreviates: sample 100 μM + GSK1016790a 3 nM.

T1 sequence (Q9HBA0 whole entry): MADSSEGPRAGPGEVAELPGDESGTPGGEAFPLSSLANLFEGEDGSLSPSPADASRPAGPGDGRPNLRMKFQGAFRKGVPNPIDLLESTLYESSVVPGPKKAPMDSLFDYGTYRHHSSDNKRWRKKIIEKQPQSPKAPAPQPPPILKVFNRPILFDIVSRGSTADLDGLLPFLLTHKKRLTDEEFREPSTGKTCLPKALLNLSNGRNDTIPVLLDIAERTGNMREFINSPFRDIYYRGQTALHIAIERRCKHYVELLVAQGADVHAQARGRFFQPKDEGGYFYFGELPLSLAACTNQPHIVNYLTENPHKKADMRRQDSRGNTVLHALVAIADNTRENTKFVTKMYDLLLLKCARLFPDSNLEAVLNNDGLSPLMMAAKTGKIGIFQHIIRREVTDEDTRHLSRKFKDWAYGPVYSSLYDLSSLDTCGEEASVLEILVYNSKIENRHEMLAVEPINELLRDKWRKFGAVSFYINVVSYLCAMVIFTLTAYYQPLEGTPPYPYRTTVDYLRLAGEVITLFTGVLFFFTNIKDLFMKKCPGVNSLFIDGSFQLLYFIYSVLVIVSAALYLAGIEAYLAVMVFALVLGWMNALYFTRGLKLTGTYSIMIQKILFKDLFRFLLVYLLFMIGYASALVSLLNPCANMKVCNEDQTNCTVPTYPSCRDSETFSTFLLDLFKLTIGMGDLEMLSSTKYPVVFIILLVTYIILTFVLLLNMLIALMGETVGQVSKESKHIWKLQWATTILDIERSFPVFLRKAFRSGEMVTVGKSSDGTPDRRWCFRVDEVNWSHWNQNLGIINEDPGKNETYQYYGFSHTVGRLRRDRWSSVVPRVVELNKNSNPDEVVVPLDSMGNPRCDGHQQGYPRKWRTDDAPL

With `COc1ccc(CC(OC(=O)/C=C/c2ccc(O)c(O)c2)C(=O)O)cc1OC` (stereo not shown) [3,4-DiMe-RA, (E)-3-(3,4-dimethoxyphenyl)-2-{[3-(3,4-dihydroxyphenyl)acryloyl]oxy}propionic acid], the “calcium ion influx caused by the TRPV4 agonist (result in words)” value is given as “significantly reduced the calcium ion influx”. Also, the “Intracellular Ca^2+ influx rate (%)” value under setting [1] is 80.66 ± 1.58 (P < 0.01) %. Also, the “Intracellular Ca^2+ influx rate (%)” value under setting [2] is given as 78.99 ± 3.27 (P < 0.01) %.
In the same order, the values of `COc1ccc(/C=C/C(=O)OC(Cc2ccc(O)c(O)c2)C(=O)O)cc1OC` (stereo not shown) [3′,4′-DiMe-RA, (E)-3-(3,4-dihydroxyphenyl)-2-{[3-(3,4-dimethoxyphenyl)acryloyl]oxy}propionic acid] are “significantly reduced the calcium ion influx”, 78.81 ± 3.67 (P < 0.01) % and 81.74 ± 1.18 (P < 0.01) %.
Turning to `COc1ccc(CC(OC(=O)/C=C/c2ccc(O)c(OC)c2)C(=O)O)cc1O` (stereo not shown) [4,3′-DiMe-RA, (E)-3-(3-hydroxy-4-methoxyphenyl)-2-{[3-(4-hydroxy-3-methoxyphenyl)acryloyl]oxy}propionic acid], the “calcium ion influx caused by the TRPV4 agonist (result in words)” value is on record as “significantly reduced the calcium ion influx”. Also, the “Intracellular Ca^2+ influx rate (%)” value under setting [1] is reported as 85.31 ± 8.14 (P < 0.05) %. Further, the “Intracellular Ca^2+ influx rate (%)” value under setting [2] is given as 81.02 ± 1.18 (P < 0.01) %.
In the same order, the values of `COc1ccc(/C=C/C(=O)OC(Cc2ccc(OC)c(O)c2)C(=O)O)cc1O` (stereo not shown) [4,4′-DiMe-RA, (E)-3-(3-hydroxy-4-methoxyphenyl)-2-{[3-(3-hydroxy-4-methoxyphenyl)acryloyl]oxy}propionic acid] are “significantly reduced the calcium ion influx”, 83.19 ± 4.69 (P < 0.05) % and 75.87 ± 3.39 (P < 0.001) %.
For `Cc1c(C(=O)Nc2cccc(C(F)(F)F)c2)cc(-c2ccccc2)n1CCCN1CCOCC1` [HC067047, reference compound], the “Intracellular Ca^2+ influx rate (%)” value (sample 10 μM + GSK1016790a 3 nM) is 0.63 ± 0.14 (P < 0.001) %.
